Laboratory results as given in ChEMBL document CHEMBL5465560, “Selectivity Literature for EUbOPEN Chemogenomic Library” (2024).

Tests used:
[1] = biological target: LIM domain kinase 1 (Homo sapiens) (UniProt P53667); test: Selectivity interaction (Ambit KINOMEscan and KiNATiv profiling in Jurkat cells) EUB0000090b LIMK1; assay type: cell-based; conditions: at 1 µM
[2] = biological target: ALK tyrosine kinase receptor (Homo sapiens, UniProt Q9UM73); test: (§1) Selectivity interaction (Ambit KINOMEscan and KiNATiv profiling in Jurkat cells) EUB0000090b ALK; assay type: cell-based; conditions: at 1 µM
[3] = tested on: ALK tyrosine kinase receptor (Homo sapiens), Q9UM73 [C1156Y]; test: as §1; assay type: cell-based; conditions: at 1 µM
[4] = tested on: ALK tyrosine kinase receptor (Homo sapiens), Q9UM73 [L1196M]; test: as §1; assay type: cell-based; conditions: at 1 µM
[5] = tested on: Epidermal growth factor receptor (Homo sapiens), P00533 [UNDEFINED MUTATION]; test: Selectivity interaction (KinomeScan (DiscoverX)) EUB0000655a EGFR; conditions: at 10 µM
[6] = biological target: Tyrosine-protein kinase HCK (Homo sapiens) (UniProt P08631); test: Selectivity interaction (KinomeScan (DiscoverX)) EUB0000655a HCK; conditions: at 10 µM
[7] = biological target: Serine/threonine-protein kinase PAK 6 (Homo sapiens) (UniProt Q9NQU5); test: Selectivity interaction (SelectScreen profiling (Invitrogen)) EUB0000607a PAK6; conditions: at 2 µM
[8] = biological target: Tyrosine-protein kinase receptor Tie-1 (Homo sapiens) (UniProt P35590); test: Selectivity interaction (KinomeScan (DiscoverX)) EUB0000607a TIE1; conditions: at 10 µM
[9] = biological target: Tyrosine-protein kinase Blk (Homo sapiens) (UniProt P51451); test: Selectivity interaction (KinomeScan (DiscoverX)) EUB0000045b BLK
[10] = biological target: Calcium/calmodulin-dependent protein kinase type 1D (Homo sapiens) (UniProt Q8IU85); test: Selectivity interaction (KinomeScan (DiscoverX)) EUB0000045b CAMK1D
[11] = biological target: T1, Inhibitor of nuclear factor kappa-B kinase subunit epsilon (Homo sapiens) (UniProt Q14164); test: Selectivity interaction (KinomeScan (DiscoverX)) EUB0000045b IKBKE
T1 sequence (whole entry): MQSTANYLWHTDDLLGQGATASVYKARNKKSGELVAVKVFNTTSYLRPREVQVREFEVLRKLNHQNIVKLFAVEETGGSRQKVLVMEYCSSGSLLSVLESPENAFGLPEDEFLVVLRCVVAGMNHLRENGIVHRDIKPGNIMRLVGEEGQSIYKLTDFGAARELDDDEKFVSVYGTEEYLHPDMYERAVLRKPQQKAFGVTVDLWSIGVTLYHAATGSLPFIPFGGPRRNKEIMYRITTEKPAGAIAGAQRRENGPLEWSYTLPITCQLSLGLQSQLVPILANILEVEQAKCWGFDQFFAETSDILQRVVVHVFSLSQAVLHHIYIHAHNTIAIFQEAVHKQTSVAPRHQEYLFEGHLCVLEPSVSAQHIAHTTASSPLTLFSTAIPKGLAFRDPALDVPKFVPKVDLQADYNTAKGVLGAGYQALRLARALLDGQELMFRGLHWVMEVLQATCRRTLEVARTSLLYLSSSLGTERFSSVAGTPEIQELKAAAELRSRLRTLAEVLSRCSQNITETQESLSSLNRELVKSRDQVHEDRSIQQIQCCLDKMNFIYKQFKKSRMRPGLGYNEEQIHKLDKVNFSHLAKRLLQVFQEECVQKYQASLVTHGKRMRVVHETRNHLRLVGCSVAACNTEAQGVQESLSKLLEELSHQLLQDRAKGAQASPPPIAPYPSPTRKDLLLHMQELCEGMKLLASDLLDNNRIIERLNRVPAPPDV

[12] = tested on: Epidermal growth factor receptor (Homo sapiens), P00533 [UNDEFINED MUTATION]; test: Selectivity interaction (KinomeScan (DiscoverX)) EUB0000045b EGFR; conditions: at 1 µM
[13] = biological target: Transcription initiation factor TFIID subunit 1 (Homo sapiens) (UniProt P21675); test: Selectivity interaction (Bromodomain panel (DSF asssay)) EUB0000270b TAF1
[14] = biological target: Mitogen-activated protein kinase kinase kinase 10 (Homo sapiens) (UniProt Q02779); test: Selectivity interaction (KinomeScan (DiscoverX)) EUB0000229b MAP3K10; conditions: at 10 µM
[15] = biological target: Voltage-gated inwardly rectifying potassium channel KCNH2 (Homo sapiens, UniProt Q12809); test: Selectivity interaction (HERG dofetilide binding assay, human recombinant ) EUB0000877a KCNH2
[16] = biological target: 5-hydroxytryptamine receptor 2B (Homo sapiens, UniProt P41595); test: Selectivity interaction (Serotonin 5HT2B Calcium flux assay, agonist mode ) EUB0000877a HTR2B
[17] = biological target: Tyrosine-protein kinase Lyn (Homo sapiens, UniProt P07948); test: Selectivity interaction (KinomeScan (DiscoverX)) EUB0000666a LYN; conditions: at 10 µM
[18] = biological target: Dual specificity protein kinase CLK2 (Homo sapiens, UniProt P49760); test: Selectivity interaction (KinomeScan (DiscoverX)) EUB0000666a CLK2; conditions: at 10 µM
[19] = biological target: LIM domain kinase 1 (Homo sapiens) (UniProt P53667); test: Selectivity interaction (KinomeScan (DiscoverX)) EUB0000092b LIMK1; conditions: at 10 µM
[20] = biological target: Serine/threonine-protein kinase 25 (Homo sapiens) (UniProt O00506); test: Selectivity interaction (KinomeScan (DiscoverX)) EUB0000092b STK25; conditions: at 10 µM
[21] = biological target: Calcium/calmodulin-dependent protein kinase type II subunit gamma (Homo sapiens) (UniProt Q13555); test: Selectivity interaction (KinomeScan (DiscoverX)) EUB0000092b CAMK2G; conditions: at 10 µM
[22] = biological target: T2, cGMP-dependent protein kinase 1 (Homo sapiens) (UniProt Q13976); test: Selectivity interaction (KinomeScan (DiscoverX)) EUB0000695a PRKG1; conditions: at 100 nM
T2 sequence (whole entry): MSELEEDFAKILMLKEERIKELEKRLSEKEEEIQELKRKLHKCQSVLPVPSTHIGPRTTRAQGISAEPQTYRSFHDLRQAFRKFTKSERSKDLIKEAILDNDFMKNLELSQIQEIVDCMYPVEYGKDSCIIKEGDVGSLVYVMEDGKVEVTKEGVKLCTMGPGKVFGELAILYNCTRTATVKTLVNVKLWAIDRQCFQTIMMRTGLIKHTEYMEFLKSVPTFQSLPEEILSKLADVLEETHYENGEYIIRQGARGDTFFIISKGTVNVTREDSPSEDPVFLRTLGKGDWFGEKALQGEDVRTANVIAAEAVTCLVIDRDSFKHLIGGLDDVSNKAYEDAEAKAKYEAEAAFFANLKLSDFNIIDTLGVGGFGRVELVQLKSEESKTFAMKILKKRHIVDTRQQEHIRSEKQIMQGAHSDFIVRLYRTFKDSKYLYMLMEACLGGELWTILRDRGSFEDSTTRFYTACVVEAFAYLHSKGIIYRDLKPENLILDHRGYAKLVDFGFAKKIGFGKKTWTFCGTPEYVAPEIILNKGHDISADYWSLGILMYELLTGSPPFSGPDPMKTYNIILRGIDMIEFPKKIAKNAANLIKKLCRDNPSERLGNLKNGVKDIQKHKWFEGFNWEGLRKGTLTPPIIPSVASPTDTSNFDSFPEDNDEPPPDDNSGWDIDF

Chain of LIM domain kinase 1 (Homo sapiens) (P53667 whole entry, looked up, the tested form may be a part): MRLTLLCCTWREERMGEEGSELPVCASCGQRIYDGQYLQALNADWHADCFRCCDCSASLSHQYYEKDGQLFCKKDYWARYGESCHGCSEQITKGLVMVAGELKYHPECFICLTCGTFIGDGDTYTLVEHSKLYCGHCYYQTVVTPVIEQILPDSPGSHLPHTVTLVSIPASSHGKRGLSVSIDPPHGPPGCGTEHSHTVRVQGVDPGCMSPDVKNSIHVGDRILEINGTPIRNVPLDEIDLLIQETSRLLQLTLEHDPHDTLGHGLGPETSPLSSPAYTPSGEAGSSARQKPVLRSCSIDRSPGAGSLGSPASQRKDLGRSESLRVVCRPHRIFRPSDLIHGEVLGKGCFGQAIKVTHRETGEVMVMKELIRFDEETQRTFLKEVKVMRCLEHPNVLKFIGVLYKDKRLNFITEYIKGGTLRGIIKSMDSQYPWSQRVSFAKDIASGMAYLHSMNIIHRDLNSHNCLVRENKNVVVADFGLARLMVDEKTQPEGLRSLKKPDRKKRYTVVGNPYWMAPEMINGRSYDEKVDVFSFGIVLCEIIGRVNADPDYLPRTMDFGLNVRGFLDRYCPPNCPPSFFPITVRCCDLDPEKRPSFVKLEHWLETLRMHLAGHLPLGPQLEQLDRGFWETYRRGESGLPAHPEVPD
Chain of Tyrosine-protein kinase Blk (Homo sapiens) (P51451 2-505 limits assumed): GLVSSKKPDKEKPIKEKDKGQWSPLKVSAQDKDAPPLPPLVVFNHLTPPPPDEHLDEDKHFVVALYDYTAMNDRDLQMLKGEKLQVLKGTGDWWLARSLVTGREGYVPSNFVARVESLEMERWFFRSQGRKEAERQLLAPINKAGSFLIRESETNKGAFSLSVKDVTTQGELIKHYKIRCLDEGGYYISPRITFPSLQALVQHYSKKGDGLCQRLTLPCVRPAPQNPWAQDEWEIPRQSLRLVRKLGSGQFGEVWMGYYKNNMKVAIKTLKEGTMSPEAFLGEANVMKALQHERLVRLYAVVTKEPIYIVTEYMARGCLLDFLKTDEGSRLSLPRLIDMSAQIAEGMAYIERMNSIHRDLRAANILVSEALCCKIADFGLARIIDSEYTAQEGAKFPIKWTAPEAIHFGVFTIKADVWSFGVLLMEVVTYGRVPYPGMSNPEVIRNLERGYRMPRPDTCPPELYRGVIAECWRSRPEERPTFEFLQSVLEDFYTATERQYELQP
Chain of Calcium/calmodulin-dependent protein kinase type 1D (Homo sapiens) (Q8IU85 whole entry, looked up): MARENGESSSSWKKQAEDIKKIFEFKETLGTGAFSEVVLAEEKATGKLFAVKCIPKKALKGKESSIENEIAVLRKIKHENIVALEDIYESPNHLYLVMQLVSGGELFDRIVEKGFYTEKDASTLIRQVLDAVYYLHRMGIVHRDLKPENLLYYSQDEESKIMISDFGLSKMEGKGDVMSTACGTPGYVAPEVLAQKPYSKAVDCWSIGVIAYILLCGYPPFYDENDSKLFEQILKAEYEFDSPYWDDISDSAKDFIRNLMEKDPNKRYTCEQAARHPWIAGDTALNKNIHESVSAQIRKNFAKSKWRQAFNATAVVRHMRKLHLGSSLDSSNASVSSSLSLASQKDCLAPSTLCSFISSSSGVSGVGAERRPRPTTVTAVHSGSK
Chain of Epidermal growth factor receptor (Homo sapiens), P00533 [UNDEFINED MUTATION] (P00533 whole entry, looked up, change not shown): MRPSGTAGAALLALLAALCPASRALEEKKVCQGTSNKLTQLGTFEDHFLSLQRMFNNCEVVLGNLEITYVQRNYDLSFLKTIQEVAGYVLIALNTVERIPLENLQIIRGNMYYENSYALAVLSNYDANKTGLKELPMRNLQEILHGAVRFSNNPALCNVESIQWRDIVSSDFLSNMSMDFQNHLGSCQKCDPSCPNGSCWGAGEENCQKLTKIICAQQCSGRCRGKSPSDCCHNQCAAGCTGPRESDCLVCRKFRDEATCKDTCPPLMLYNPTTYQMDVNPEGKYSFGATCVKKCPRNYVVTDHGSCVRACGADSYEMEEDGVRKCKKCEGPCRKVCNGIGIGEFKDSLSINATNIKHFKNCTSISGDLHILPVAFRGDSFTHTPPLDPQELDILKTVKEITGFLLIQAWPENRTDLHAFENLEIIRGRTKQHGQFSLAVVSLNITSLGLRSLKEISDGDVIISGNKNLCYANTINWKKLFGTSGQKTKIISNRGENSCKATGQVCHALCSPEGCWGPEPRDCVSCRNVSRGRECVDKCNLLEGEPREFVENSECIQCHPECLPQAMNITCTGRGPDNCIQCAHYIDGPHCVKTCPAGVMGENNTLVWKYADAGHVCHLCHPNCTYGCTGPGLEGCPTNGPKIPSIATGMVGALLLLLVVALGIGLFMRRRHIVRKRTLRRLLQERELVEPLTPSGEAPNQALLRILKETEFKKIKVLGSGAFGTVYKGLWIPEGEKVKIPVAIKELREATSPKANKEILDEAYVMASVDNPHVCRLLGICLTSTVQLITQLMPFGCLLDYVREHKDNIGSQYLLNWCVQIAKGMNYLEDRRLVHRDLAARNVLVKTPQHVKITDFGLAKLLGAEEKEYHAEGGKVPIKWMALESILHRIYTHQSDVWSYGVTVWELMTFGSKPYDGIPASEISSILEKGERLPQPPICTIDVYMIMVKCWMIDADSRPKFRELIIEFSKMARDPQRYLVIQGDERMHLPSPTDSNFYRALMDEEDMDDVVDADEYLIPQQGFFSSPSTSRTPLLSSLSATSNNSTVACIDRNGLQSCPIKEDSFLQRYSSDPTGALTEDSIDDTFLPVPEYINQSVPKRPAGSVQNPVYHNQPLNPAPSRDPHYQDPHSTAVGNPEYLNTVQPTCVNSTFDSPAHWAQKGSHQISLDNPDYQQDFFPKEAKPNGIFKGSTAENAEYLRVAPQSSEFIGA
Chain of Calcium/calmodulin-dependent protein kinase type II subunit gamma (Homo sapiens) (Q13555 whole entry): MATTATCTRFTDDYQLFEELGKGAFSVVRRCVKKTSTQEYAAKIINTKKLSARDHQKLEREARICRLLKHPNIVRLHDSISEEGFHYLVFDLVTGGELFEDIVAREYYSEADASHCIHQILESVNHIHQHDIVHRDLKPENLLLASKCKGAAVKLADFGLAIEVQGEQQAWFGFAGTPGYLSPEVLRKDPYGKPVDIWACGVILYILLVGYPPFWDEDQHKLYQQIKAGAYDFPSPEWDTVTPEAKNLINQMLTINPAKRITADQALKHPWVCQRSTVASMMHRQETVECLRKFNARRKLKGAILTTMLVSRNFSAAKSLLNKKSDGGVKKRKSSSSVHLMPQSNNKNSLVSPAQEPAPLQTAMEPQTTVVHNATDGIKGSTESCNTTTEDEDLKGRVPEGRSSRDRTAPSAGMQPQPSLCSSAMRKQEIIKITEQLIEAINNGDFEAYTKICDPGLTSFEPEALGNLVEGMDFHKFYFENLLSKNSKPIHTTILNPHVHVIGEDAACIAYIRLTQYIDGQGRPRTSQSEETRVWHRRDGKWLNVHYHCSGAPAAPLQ
Chain of Serine/threonine-protein kinase PAK 6 (Homo sapiens) (Q9NQU5 whole entry, looked up): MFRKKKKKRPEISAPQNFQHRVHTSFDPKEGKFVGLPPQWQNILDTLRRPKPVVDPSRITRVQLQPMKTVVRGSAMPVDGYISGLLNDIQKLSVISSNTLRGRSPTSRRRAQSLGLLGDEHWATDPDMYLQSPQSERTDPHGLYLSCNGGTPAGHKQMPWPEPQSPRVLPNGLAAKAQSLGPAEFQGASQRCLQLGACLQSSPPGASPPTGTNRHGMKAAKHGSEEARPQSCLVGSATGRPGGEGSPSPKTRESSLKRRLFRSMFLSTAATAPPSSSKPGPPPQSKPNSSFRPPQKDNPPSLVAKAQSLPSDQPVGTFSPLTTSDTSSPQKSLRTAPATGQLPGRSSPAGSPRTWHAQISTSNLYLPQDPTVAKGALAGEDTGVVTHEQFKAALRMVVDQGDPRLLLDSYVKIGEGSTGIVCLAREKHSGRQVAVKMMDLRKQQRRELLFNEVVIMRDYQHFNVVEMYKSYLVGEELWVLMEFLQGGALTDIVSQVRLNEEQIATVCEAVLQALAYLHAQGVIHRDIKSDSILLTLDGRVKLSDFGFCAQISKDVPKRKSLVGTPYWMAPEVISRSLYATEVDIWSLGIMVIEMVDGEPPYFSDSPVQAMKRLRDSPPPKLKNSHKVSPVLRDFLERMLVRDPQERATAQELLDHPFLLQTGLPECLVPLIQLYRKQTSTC
Chain of Mitogen-activated protein kinase kinase kinase 10 (Homo sapiens) (Q02779 whole entry, looked up): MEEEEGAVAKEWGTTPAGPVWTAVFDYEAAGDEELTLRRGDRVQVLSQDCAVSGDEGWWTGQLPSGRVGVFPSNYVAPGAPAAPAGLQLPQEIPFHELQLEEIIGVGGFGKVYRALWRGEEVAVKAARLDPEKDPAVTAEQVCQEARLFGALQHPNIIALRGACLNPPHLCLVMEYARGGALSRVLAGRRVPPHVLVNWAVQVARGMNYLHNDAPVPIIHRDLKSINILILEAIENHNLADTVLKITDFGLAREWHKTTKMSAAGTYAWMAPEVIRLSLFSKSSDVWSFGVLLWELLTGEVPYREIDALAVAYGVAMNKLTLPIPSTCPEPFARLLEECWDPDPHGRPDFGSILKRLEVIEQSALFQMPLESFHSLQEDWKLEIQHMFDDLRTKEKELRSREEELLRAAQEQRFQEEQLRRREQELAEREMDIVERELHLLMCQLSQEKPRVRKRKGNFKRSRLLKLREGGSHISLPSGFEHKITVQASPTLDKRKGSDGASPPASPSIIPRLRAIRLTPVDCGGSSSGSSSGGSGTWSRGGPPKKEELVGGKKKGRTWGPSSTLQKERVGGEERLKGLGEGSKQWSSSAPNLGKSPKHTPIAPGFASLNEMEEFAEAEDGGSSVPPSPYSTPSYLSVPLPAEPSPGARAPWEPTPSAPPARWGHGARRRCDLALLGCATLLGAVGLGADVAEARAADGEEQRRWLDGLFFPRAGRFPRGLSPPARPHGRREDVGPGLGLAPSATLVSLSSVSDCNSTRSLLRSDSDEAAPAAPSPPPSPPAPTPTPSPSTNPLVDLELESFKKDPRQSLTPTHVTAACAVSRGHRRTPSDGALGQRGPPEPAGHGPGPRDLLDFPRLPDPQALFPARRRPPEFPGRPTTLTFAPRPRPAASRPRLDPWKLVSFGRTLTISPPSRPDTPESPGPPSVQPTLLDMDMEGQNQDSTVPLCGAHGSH

CN(C)C/C=C/C(=O)Nc1ccc(C(=O)N2CCCC(Nc3ncc(Cl)c(-c4c[nH]c5ccccc45)n3)C2)cc1 (stereo not given)
% of control [1]: 100% | % of control [2]: 86% | % of control [3]: 100% | % of control [4]: 99%

CN(C)CCOc1ccc(-c2nc(-c3ccncc3)c(-c3ccc4c(c3)CC/C4=N\O)[nH]2)cc1
% of control [5]: 54% | % of control [6]: 84%

CNC(=O)Nc1ccc(-c2nc(N3CC4CCC(C3)O4)c3cnn(C4CCC5(CC4)OCCO5)c3n2)cc1
% of inhibition [7]: 11% | % of control [8]: 98%

C=CC(=O)Nc1cc(-n2c(=O)ccc3cnc4ccc(-c5ccc(NS(C)(=O)=O)cc5)cc4c32)ccc1C
% of control ([9]; at 1 µM): 40% | % of control ([9]; at 10 µM): 4.8% | % of control ([10]; at 1 µM): 100% | % of control ([10]; at 10 µM): 77% | % of control ([11]; at 1 µM): 100% | % of control ([11]; at 10 µM): 100% | % of control [12]: 66%

Cc1cc(CN)cc(C)c1-c1ncn(C)c1-c1cncn1C
dTM [13]: -1.17 K

COc1cc(N(C)c2ccnc3ccc(C(F)(F)F)cc23)cc(OC)c1OC
% binding [14]: 100%

CCC(=O)N1CC[C@H](Nc2ncnc3c2CN(c2cnc(OC)c(C(F)(F)F)c2)CC3)C1 [LENIOLISIB]
IC50 [15]: > 30 µM | IC50 [16]: > 30 µM

O=C(NOC[C@H](O)CO)c1ccc(F)c(F)c1Nc1ccc(I)cc1F
% of control [17]: 72% | % of control [18]: 96%

CCC(=O)N1CCN(c2ccc(-n3c(=O)ccc4cnc5ccc(-c6cnc7ccccc7c6)cc5c43)cc2C(F)(F)F)CC1
% of control [19]: 15% | % of control [20]: 84% | % of control [21]: 79%

Cc1cc(F)c(C(=O)Nc2cccc(-c3nncn3C(C)C)n2)cc1-n1cnc(C2CC2)c1
% of control [22]: 100%
